Experimental findings from patent US7985745B2, “Method for pain treatment” (Abbott Laboratories, priority 2006, dated 2011) are described below.

For one test, the system named is neuropathic pain. The test is described as follows: Bennett model: chronic constriction injury of sciatic nerve, mechanical stimulus. The test is classed as in vivo, rat. The text has this:
To prepare animals for the model, an incision of about 1.5 cm was made about 0.5 cm below the rat pelvis. The biceps femoris and the gluteous superficialis (right side) were separated and the sciatic nerve exposed, isolated, and four loose ligatures (5-0 chromic [NT]) with 1 mm spacing were placed around it. The rats were allowed to recover and then placed in a cage with soft bedding for 10 days before assessment of pain response to mechanical stimulus by the method described above for the Chung model.

Test [1] addresses T1, histamine H4 receptor (Homo sapiens, UniProt Q9H3N8).
T1 construct: expressed in transfected cells; host or cells: HEK-293 cells, transient transfection with pCINeo vector; membranes
The test is described as follows: FLIPR Ca2+ assay in HEK-293 cells stably expressing histamine H4 receptor and Gαqi5. The test is classed as cell-based. The following applies: Kb for antagonists and inverse agonists, EC50 for partial agonists; block of histamine-induced Ca2+ increase. The text has this:
Histamine H4 receptors from mammalian species have been cloned. Methods to clone, express, and assess the potency and functional activity of such cloned genes are well known to those skilled in the art of molecular biology. […] Before testing, cells are loaded with a Ca^+2 sensitive fluorescent dye, in this case Fluo-4. In the case of partial agonist or agonist ligands, addition of compound to the cells leads to the increase in intracellular Ca^+2 which is detected by FLIPR (Fluorescence Imaging Plate Reader; Molecular Devices, Sunnyvale, Calif.) technology. […] The fluorescence intensities measured before addition of the test compound are subtracted from the fluorescence intensities at later time points. Peak response values determined at each concentration of ligand are expressed as a percentage of the response obtained with the full agonist histamine. Concentration versus response data are analyzed to obtain compound potency as Kb values for antagonists and inverse agonists and as EC50 values for partial agonists.

Test [2] deals with T1, histamine H4 receptor. The test is described as follows: 3H-histamine competition binding assay, membranes of transfected HEK-293 cells. The following applies: displacement of [3H]-histamine, 25° C., 1 h; read-out: Potency in Competition Binding Assay. On the procedure:
In this assay, membranes were prepared from HEK-293 cells transiently transfected with the pCINeo expression vector harboring the histamine H4 receptor by homogenization of the cells on ice in TE buffer (50 mM Tris-HCl buffer, pH 7.4, containing 5 mM EDTA), 1 mM benzamidine, 2 μg/ml aprotinin, 1 μg/ml leupeptin, and 1 μg/ml pepstatin. The homogenate was centrifuged at 40,000 g for 20 minutes at 4° C. This step was repeated, and the resulting pellet was resuspended in TE buffer. Aliquots were frozen at −70° C. until needed. On the day of assay, membranes were thawed and diluted with TE buffer. Competition radioligand binding assays were performed with increasing concentrations of test compound in the presence of [^3H]-histamine incubated at 25° C. for 1 h in a total volume of 0.5 ml of 50 mM Tris, 5 mM EDTA, pH 7.4. All binding reactions were terminated by filtration under vacuum onto polyethylenimine (0.3%) presoaked Unifilters (PerkinElmer Life Sciences) or Whatman GF/B filters (Whatman, Clifton, N.J.) followed by three brief washes with 4 ml of ice-cold TE buffer. Bound radiolabel was determined by liquid scintillation counting. For all of the radioligand competition binding assays, IC50 values and Hill slopes were determined by Hill transformation of the data and Ki values were determined by the Cheng-Prusoff equation.

The subject of another test is thermal hyperalgesia. The test is described as follows: Complete Freund's adjuvant-induced thermal hyperalgesia. The test is classed as in vivo, rat. To be noted: 30 minutes before testing, 48 hours after CFA, thermal stimulus. On the procedure: To assess the effectiveness of representative compounds of the invention against hyperalgesia, animals were tested in an acute model of adjuvant-induced thermal hyperalgesia (see for example, Honore, et al. Behavioural Brain Research 167 (2006) 355-364; Carroll, et al. US Patent application US 2006/0025614A 1). To prepare animals for the model, a solution of Complete Freund's adjuvant (150 microliters of a 50% aqueous solution, Sigma Chemical Company, St. Louis, Mo.) was injected into the plantar surface of test paw of the animal (rat). Rats so injected develop a hyperalgesia to thermal stimulation which is assessed 48 hours after injection of the Complete Freund's adjuvant using a commercially available paw thermal stimulator (UARDG, Dept. of Anesthesiology, Univ. California at San Diego, La Jolla, Calif.). For testing, rats were placed individually in a so-called ‘hot box’ (i.e. Plexiglass cubicles mounted on a glass surface) maintained at 30° C., and allowed a 30 minute habituation period. A thermal stimulus, in the form of radiant heat emitted from a focused projection bulb, was then applied to the plantar surface of each hind paw. The stimulus current was maintained (e.g. at 4.5 Amp) and the time of exposure set to limit the extent of possible tissue damage (e.g. maximum of 20 seconds exposure to thermal heating from the projection bulb). The time (in seconds) for the withdrawal of the paw that was injected with the Complete Freund's adjuvant (CFA) and subjected to the thermal stimulus was recorded, and this was compared to the time (in seconds) for withdrawal of the uninjected paw subjected to the same thermal stimulus. […] To test the effect of a compound on the hyperalgesia, the test compound is dissolved in a vehicle (e.g. water or saline) and administered by i.p. (intraperitoneal) injection 30 minutes before the testing of the animal's response to the thermal stimulus to the paws. The antihyperalgesic activity of the compound in blocking the pain is shown by an increase in the time to withdraw the CFA-injected paw subjected to thermal stimulus. Experiments are done with single-dose and escalating-dosages of the test compound, and dose response curves constructed to determine ED50 values.

T1 sequence (Q9H3N8 whole entry, species assumed): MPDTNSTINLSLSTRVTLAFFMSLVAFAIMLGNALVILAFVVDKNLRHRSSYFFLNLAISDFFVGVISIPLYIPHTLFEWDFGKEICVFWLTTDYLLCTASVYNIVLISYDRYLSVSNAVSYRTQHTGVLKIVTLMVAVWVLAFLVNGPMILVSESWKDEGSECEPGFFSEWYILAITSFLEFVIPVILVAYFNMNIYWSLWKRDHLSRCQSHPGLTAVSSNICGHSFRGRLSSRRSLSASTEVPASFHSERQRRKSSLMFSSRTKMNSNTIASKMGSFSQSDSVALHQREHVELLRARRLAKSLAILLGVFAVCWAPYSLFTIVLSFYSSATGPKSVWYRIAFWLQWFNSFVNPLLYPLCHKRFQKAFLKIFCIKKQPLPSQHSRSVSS

In the case of `CN1CCN(c2cc(-c3ccc(C#N)cc3)nc(N)n2)CC1.O=C(O)/C=C\C(=O)O` [Example 1, 4-(2-Amino-6-(4-methylpiperazin-1-yl)pyrimidin-4-yl)benzonitrile, maleate], the MPE in the test on neuropathic pain (100 micromole/kg i.p.) was determined as 18%; in the test with neuropathic pain (300 micromole/kg i.p.), 63%; in the test with thermal hyperalgesia (30 micromole/kg i.p.) it was 62%; with thermal hyperalgesia (100 micromole/kg i.p.), 88%. On histamine H4 receptor [1], the “Potency in the FLIPR assay” value is on record as 58 nM. For the same molecule, the Ki at histamine H4 receptor [2] came to 35 nM.
For the molecule `CN1CCN(C(=O)c2cc3cc(Cl)ccc3[nH]2)CC1` [Example 3, reference compound], the MPE with neuropathic pain (250 micromole/kg i.p.) is on record as 32%; with neuropathic pain (500 micromole/kg i.p.) it was 73%; with thermal hyperalgesia (30 micromole/kg i.p.), 27%; with thermal hyperalgesia (300 micromole/kg i.p.), 81%.
In the case of `CNC1CN(c2nc(N)nc3c2CCCc2ccccc2-3)C1` [Example 6, 4-(3-Methylamino-azetidin-1-yl)-6,7-dihydro-5H-benzo[6,7]cyclohepta[1,2-d]pyrimidin-2-ylamine], the “Potency in the FLIPR assay” value at histamine H4 receptor [1] is on record as 9 nM. In addition, the Ki at histamine H4 receptor [2] was 11 nM.
